Data published in patent US5714467A, “Antibacterial and antimalarial hybrid peptides” (The Rockefeller University, priority 1993, dated 1998).

Columns and labels:
[1] = system: E. coli ATCC 25922; assay: anaerobic microdilution broth assay (NCCLS M11-T2), standard organism; assay type: cell-based, Escherichia coli; conditions: standard in the P. gingivalis test, anaerobic 48 hours
Experimental: (§1) Antimicrobial susceptibility testing was performed using a microdilution broth assay according to the guidelines of the National Committee for Clinical Laboratory Standards (NCCLS) Document M11-T2 (NCCLS, 1989).
(§2) One-half strength Brain Heart Infusion (BHI) (BBL catalog number 11059) supplemented with hemin and menadione is used in the microtiter plates for diluting the peptide stock solution and for diluting the bacterial inoculum.
(§3) Inoculum is prepared by culturing bacteria from an overnight plate in 5 ml of supplemented BHI. The next day the overnight broth culture is read on a BECKMAN® DU-64 spectrophotometer at 630 nm and diluted with supplemented BHI until an absorbance of 0.02 is reached which represents approximately 1×10^6 colony-forming units per milliliter (CFUs/ml). This culture is used to inoculate the microtiter plates. A sample of the inoculating culture is diluted in supplemented BHI through a series of 1:10 dilutions and the 10^-5 and 10^-6 dilutions are plated, incubated 48 hours at 35°-37° C. anaerobically, and counted to verify inoculum size.
(§4) The microtiter plates are incubated anaerobically for 48 hours at 35°-37° C. in a COY® anaerobic chamber Type A. Plates are never stacked more than four high.
E. coli ATCC 25922 was used as a standard.

[2] = system: C. albicans ATCC 14053; assay: microdilution broth assay, dermatophytes (yeast for comparison); assay type: cell-based, Candida albicans; conditions: 48 hours at 30° C., M3 broth
Experimental: (§5) Antimicrobial susceptibility testing was performed using a microdilution broth assay as with the aerobes.
(§6) Antibiotic medium 3 (M3) (BBL catalog number 10932) was used in the microtiter plates for diluting the peptide stock solution and for diluting the bacterial inoculum.
(§7) The dermatophyte cultures were grown on Potato Dextrose Agar for one week. A one centimeter square of growth is teased from the leading edge of the fungus and placed in 2 ml of sterile water in a screw-capped glass tube with glass beads (2 mm) on the bottom. The tubes were vortexed for 20 seconds each and placed in a shaker incubator (New Brunswick incubator shaker Model G25) at 37° C. for 30 minutes. Tubes were removed from the shaker incubator and allowed to settle for 10 minutes. The supernatant was read on a BECKMAN® DU-64 spectrophotometer at 530 nm for percent transmission and adjusted with M3 broth to a transmission of 65%. This culture was then diluted 1:10 in M3 broth for inoculating the microtiter plates.
(§8) The microtiter plates were incubated for 48 hours at 30° C. in a PRECISION® mechanical convection oven incubator Model 4. Plates are never stacked more than four high.
(§9) Candida albicans, a yeast was used for comparison.

[3] = system: S. aureus; assay: microdilution broth assay (NCCLS M7-A1), aerobes; assay type: cell-based, Staphylococcus aureus; conditions: 14 strains
Experimental: (§10) Antimicrobial susceptibility testing was performed using a microdilution broth assay according to the guidelines of the National Committee for Clinical Laboratory Standards (NCCLS) Document M7-A1 (NCCLS. 1990).
(§11) The peptide powder as an acetate salt was weighted on an analytical balance and transferred to a polypropylene tube. A solution was prepared at a concentration of 1.024 mg/ml by dissolving the powder in autoclaved (121° C., 20 psi, 20 minutes) deionized water. The peptide solution was used immediately, stored for up to ten days at 4° C., or stored long-term at -70° C. in 1 ml aliquots in polypropylene cryovials.
(§12) Mueller-Hinton broth (MHB) (BBL catalog number 11443) was used in the microtiter plates for diluting the peptide stock solution and for diluting the bacterial inoculum. […]
(§13) Inoculum was prepared by taking a sample of bacteria from a 16-20 hours plate culture and inoculating into 5 ml of (MHB) (BBL catalog number 95834) to an absorbance reading of approximately 0.02 at 600 nm (Ab600) on a BECKMAN® DU-64 spectrophotometer. The culture was incubated at 35°-37° C. with shaking (New Brunswick incubator shaker Model G25) and the growth monitored spectrophotometrically until it reached mid-logarithmic phase (Ab600 of approximately 0.06). This absorbance represents approximately 1×10^8 colony-forming units per milliliter (CFUs/ml). […]

[4] = system: Porphyromonas gingivalis; assay: anaerobic microdilution broth assay (NCCLS M11-T2), oral pathogen; assay type: cell-based
Experimental: as §1, §2, §3, §4

[5] = system: T. rubrum ATCC 36262; assay: microdilution broth assay, dermatophytes; assay type: cell-based; conditions: 48 hours at 30° C., M3 broth
Experimental: as §5, §6, §7, §8, §9

[6] = system: T. mentagrophytes; assay: microdilution broth assay, dermatophytes; assay type: cell-based; conditions: M3 broth
Experimental: as §5, §6, §7, §8, §9

[7] = system: Acinetobacter; assay: microdilution broth assay (NCCLS M7-A1), aerobes; assay type: cell-based; conditions: 12 strains
Experimental: as §10, §11
(§14) Mueller-Hinton broth (MHB) (BBL catalog number 11443) was used in the microtiter plates for diluting the peptide stock solution and for diluting the bacterial inoculum. MBH 5 ml prepared tubes (BBL catalog number 95834) were used to culture an overnight plate of bacteria to the logarithmic phase of growth for inoculating the microtiter plates.
(§15) Inoculum was prepared by taking a sample of bacteria from a 16-20 hours plate culture and inoculating into 5 ml of (MHB) (BBL catalog number 95834) to an absorbance reading of approximately 0.02 at 600 nm (Ab600) on a BECKMAN® DU-64 spectrophotometer. The culture was incubated at 35°-37° C. with shaking (New Brunswick incubator shaker Model G25) and the growth monitored spectrophotometrically until it reached mid-logarithmic phase (Ab600 of approximately 0.06). This absorbance represents approximately 1×10^8 colony-forming units per milliliter (CFUs/ml). The culture was then diluted to approximately 1×10^6 CFUs/ml in autoclaved MHB (BBL catalog number 11443) to produce the inoculum. A sample of the inoculating culture was diluted in 3 mM phosphate buffer (pH 7.2) through a series of 1:10 dilutions and the 10^-4 and 10^-5 dilutions were plated, incubated overnight at 35°-37° C., and counted the next day to verify inoculum size.
(§16) Microtiter plates (Corning manufacturer number 2585096) were prepared with the use of the BECKMAN® Biomek 1000 (Beckman Instruments, Somerset, N.J.) automated laboratory workstation in combination with manual techniques. The microtiter plate was filled with diluent broth using the Biomek 1000 instrument. Peptide stock solution was manually added to the top drug well of the microtiter plate using a Rainin Pipetman Model P-200. The peptide was serially diluted in two-fold dilutions using the Biomek 1000 instrument. One hundred microliters of the standardized bacterial inoculum was added to every well of the microtiter plates (except the blanks) using an Eppendorf Repeater Model 4780 pipet equipped with an Eppendorf 5 ml combitip (catalog number 22 26 130-4).
(§17) The final concentrations of peptide solution in the wells ranged from 0.25 ug/ml to 256 ug/ml. The final concentration of bacteria in the wells was 1-5×10^5 CFUs/ml. The final volume in the wells was 200 μl.
(§18) The microtiter plates were incubated overnight (16-20 hours) at 35°-37° C. in a Precision mechanical convection oven incubator Model 30M. Plates were not stacked more than four high.

[8] = system: Xanthomonas; assay: microdilution broth assay (NCCLS M7-A1), aerobes; assay type: cell-based; conditions: 12 strains
Experimental: as §10, §11, §14, §15, §16, §17, §18

[9] = system: Streptococcus pneumoniae; assay: microdilution broth assay (NCCLS M7-A1), aerobes; assay type: cell-based; conditions: 11 strains
Experimental: as §10, §11, §14, §15, §16, §17, §18

[10] = system: Group A Streptococcus; assay: microdilution broth assay (NCCLS M7-A1), aerobes; assay type: cell-based; conditions: 15 strains
Experimental: as §10, §11, §14, §15, §16, §17, §18

[11] = system: s. epidermidis; assay: microdilution broth assay (NCCLS M7-A1), aerobes; assay type: cell-based; conditions: 12 strains
Experimental: as §10, §11, §14, §15, §16, §17, §18

[12] = system: p. aeruginosa; assay: microdilution broth assay (NCCLS M7-A1), aerobes; assay type: cell-based, Pseudomonas aeruginosa; conditions: 13 strains
Experimental: as §10, §11, §12, §13

“Gly-Ile-Gly-Lys-Phe-Leu-Lys-Lys-Ala-Lys-Lys-Gly-Ile-Gly-Ala-Val-Leu-Lys-Val-Leu-Thr-Thr-Gly-Leu” was tested. Which “MIC, E. coli ATCC 25922” value [1] did it give?
Its value is 8 µg/mL.

What about the MIC, C. albicans ATCC 14053 [2] of the same substance?
Its MIC, C. albicans ATCC 14053 is 64 µg/mL.

And the “MIC RANGE, S. aureus” value [3]?
The value was 2 to 4 µg/mL.

What about the “MIC, P. gingivalis strain 9-14K-1” value ([4]; strain 9-14K-1, anaerobic 48 hours) of the same substance?
Its value is 16 µg/mL.

What about the “MIC, P. gingivalis strain 381” value ([4]; strain 381, anaerobic 48 hours) of the same substance?
Its value is 64 µg/mL.

What about the “MIC, P. gingivalis strain 2561” value ([4]; strain 2561, anaerobic 48 hours) of the same substance?
The value was 16 µg/mL.

And the “MIC, P. gingivalis strain A7A1-28” value ([4]; strain A7A1-28, anaerobic 48 hours)?
The value was 32 µg/mL.

What about the “MIC, P. gingivalis strain ATCC 33277” value ([4]; strain ATCC 33277, anaerobic 48 hours) of the same substance?
Its value is 64 to 128 µg/mL.

What about the “MIC, P. gingivalis strain ESO-127” value ([4]; strain ESO-127, anaerobic 48 hours) of the same substance?
The value was 4 to 8 µg/mL.

And the “MIC, P. gingivalis strain FAY-19M-1” value ([4]; strain FAY-19M-1, anaerobic 48 hours)?
The value was 16 µg/mL.

And the “MIC, P. gingivalis strain VAG-1” value ([4]; strain VAG-1, anaerobic 48 hours)?
Its value is 64 µg/mL.

And the “MIC, P. gingivalis strain VAG-4” value ([4]; strain VAG-4, anaerobic 48 hours)?
Its value is 32 µg/mL.

And the “MIC, P. gingivalis strain W-50” value ([4]; strain W-50, anaerobic 48 hours)?
Its value is 32 µg/mL.

What about the MIC, T. rubrum ATCC 36262 [5] of the same substance?
The MIC, T. rubrum ATCC 36262 was 256 µg/mL.

What about the MIC, T. mentagrophytes ATCC 4808 ([6]; strain ATCC 4808, 48 hours at 30° C.) of the same substance?
Its MIC, T. mentagrophytes ATCC 4808 is 16 µg/mL.

And the MIC, T. mentagrophytes ATCC 18748 ([6]; strain ATCC 18748, 48 hours at 30° C.)?
Its MIC, T. mentagrophytes ATCC 18748 is 16 µg/mL.

And the “MIC RANGE, Acinetobacter” value [7]?
Its value is 2 to 4 µg/mL.

What about the “MIC RANGE, Xanthomonas” value [8] of the same substance?
Its value is 2 to 8 µg/mL.

And the “MIC RANGE, Streptococcus pneumoniae” value [9]?
The value was 8 to 16 µg/mL.

And the “MIC RANGE, Group A Streptococcus” value [10]?
The value was 2 to 4 µg/mL.

And the “MIC RANGE, s. epidermidis” value [11]?
Its value is 2 to 4 µg/mL.

What about the “MIC RANGE, p. aeruginosa” value [12] of the same substance?
The value was 2 to 32 µg/mL.
